Results from patent US20090163521A1, “Novel Pyrazolopyrimidinone Derivatives” (ORCHID RESEARCH LABORATORIES LIMITED, priority 2005, published 2009).

Assays:
COX-2 = molecular target: T1, COX-2 (Homo sapiens, UniProt P35354); assay: Human whole blood assay (LPS-induced PGE2, COX-2 inhibition); assay type: cell-based; details: LPS stimulated
T1 construct: Fresh blood was collected in tubes containing sodium heparin by vein puncture from healthy male volunteers; endogenous in cells; host or cells: human whole blood from healthy male volunteers, aspirin-pretreated and LPS-stimulated
T1 sequence (P35354 18-604): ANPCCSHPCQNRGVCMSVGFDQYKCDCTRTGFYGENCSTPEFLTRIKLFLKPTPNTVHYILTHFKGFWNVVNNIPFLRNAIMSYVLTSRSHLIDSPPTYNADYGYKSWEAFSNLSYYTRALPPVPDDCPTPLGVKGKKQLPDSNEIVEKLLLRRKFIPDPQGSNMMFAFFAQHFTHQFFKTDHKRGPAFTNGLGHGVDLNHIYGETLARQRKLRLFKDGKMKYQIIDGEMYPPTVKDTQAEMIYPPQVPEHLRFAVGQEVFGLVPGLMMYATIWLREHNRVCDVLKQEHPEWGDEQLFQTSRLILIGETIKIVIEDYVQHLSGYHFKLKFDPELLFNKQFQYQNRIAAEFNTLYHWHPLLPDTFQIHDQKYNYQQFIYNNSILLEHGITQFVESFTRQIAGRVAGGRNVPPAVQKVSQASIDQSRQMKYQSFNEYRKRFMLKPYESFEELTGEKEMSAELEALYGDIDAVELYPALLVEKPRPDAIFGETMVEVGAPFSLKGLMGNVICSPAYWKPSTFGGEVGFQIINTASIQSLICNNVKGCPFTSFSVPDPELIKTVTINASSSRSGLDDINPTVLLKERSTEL
Protocol: Human whole blood provides a protein and cell rich milieu appropriate for the study of biochemical efficacy of anti-inflammatory compounds such as selective COX-2 inhibitors. […] This is correlating with the observation that COX-2 inhibitors have no effect on prostaglandin E2 (PGE2) production in normal blood. These inhibitors were active only after incubation of human blood with lipopolysaccharide (LPS), which induces COX-2 production in the blood.
Fresh blood was collected in tubes containing sodium heparin by vein puncture from healthy male volunteers. The subjects should have no apparent inflammatory conditions and not taken NSAIDs for at least 7 days prior to blood collection. Blood was preincubated with aspirin in vitro (12 μg/ml, at time zero) to inactivate COX-1 for 6 hours. Then test compounds (at various concentrations) or vehicle were added to blood. After that blood was stimulated with LPS B:4 (10 μg/ml) and incubated for another 18 h at 37° C. water bath. After which the blood was centrifuged, plasma was separated and stored at −80° C. (J. Pharmacol. Exp. Ther, 271, 1705, 1994; Proc. Natl. Acad. Sci. USA, 96, 7563, 1999). The plasma was assayed for PGE2 using Cayman ELISA kit as per the procedure outlined by the manufacturer (Cayman Chemicals, Ann Arbor, USA).

TNF-α = assay: In vitro measurement of TNF-α in LPS-stimulated human PBMC; assay type: cell-based; details: LPS 1 μg/ml, 18 h
Protocol: This assay determines the effect of test compounds on the production of TNF α in human Peripheral Blood Mononuclear Cells (PBMC). Compounds were tested for their ability to inhibit the activity of TNF α in human PBMC. PBMC were isolated from blood (from healthy volunteers) using BD Vacutainer CPT™ (Cell preparation tube, BD Bio Science) and suspended in RPMI medium (Physiol. Res. 52: 593-598, 2003). The test compounds were pre-incubated with PBMC (0.5 million/incubation well) for 15 minutes at 37° C. and then stimulated with Lipopolysaccharide (Escherichia coli: B4; 1 μg/ml) for 18 h at 37° C. in 5% CO2. The levels of TNFα in cell culture medium were estimated using enzyme linked Immunosorbent assay performed in a 96 well format as per the procedure of the manufacturer (Cayman Chemical, Ann Arbor, USA).

Rat Paw Edema model = assay: Carrageenan induced paw edema test in rat; assay type: in vivo; details: 5 mg/kg b. wt., p.o.; 3 hours after carrageenan
Protocol: The carrageenan paw edema test was performed as described by Winter et al (Proc. Soc. Exp. Biol. Med, 111, 544, 1962). Male wistar rats were selected with body weights equivalent within each group. The rats were fasted for eighteen hours with free access to water. The rats were dosed orally with the test compound suspended in vehicle containing 0.25% carboxymethylcellulose and 0.5% Tween 80. The control rats were administered with vehicle alone. After an hour, the rats were injected with 0.1 ml of 1% Carrageenan solution in 0.9% saline into the sub-plantar surface of the right hind paw. Paw volume was measured using digital plethysmograph before and after 3 hours of carrageenan injection. The average of foot swelling in drug treated animals was compared with that of control animals. Anti-inflammatory activity was expressed as the percentage inhibition of edema compared with control group [Arzneim-Forsch/Drug Res., 43 (1), 1, 44-50, 1993; Ottemess and Bliven, Laboratory Models for Testing NSAIDs, In Non-Steroidal Anti-Inflammatory Drugs, (J. Lombardino, ed. 1985)].

NCI-H460 = assay: DTP human tumor cell line screen, NCI-H460; assay type: cell-based; details: 100 μM; 48 hours; percent growth of control
Protocol: (§1) The current assay utilizes a 384 well plate format and fluorescent staining technologies resulting in greater screening capacity for testing of synthetic samples.
(§2) The cell lines of the cancer-screening panel are grown in RPMI 1640 medium containing 5% fetal bovine serum and 2 mM L-glutamine. For a typical screening experiment, cells are inoculated into 96 well microtiter plates in 100 μL. After cell inoculation, the micro-titer plates are incubated at 37° C., 5% CO2, 95% air and 100% relative humidity for 24 h prior to addition of experimental drugs. The cells are plated a densities of 5000 cells/well (MCF7), 1000 cells/well (NCI-H460), and 7500 cells/well (SF-268) to allow for varying doubling time of the cell lines. Each plate contains all three-cell lines, a series of dilutions of standard agents, total kill wells and appropriate controls. Plates are incubated under standard conditions for 24 hours prior to addition of experimental compounds or extracts.
(§3) Experimental compounds are solubilized in dimethyl sulfoxide (DMSO) at 400-times the desired maximum test concentration (maximum final DMSO concentration of 0.25%) and stored frozen. Compounds are then diluted with complete media with 0.1% gentamicin sulfate (5 μl of test sample in 100% DMSO is added to 565 μl of complete medium). 20 μl of this solution is then dispensed into test wells containing 50 μl of cell suspension to yield a test concentration of 1.00E-04M.
(§4) After compound addition, plates are incubated at standard conditions for 48 hours, 10 μl/well Alamar Blue is added and the plates are incubated for an additional 4 hours. Fluorescence is measured using an excitation wavelength of 530 nm and an emission wavelength of 590 nm.
(§5) Percent growth is calculated on a plate-by-plate basis for test wells relative to control wells. Percent Growth is expressed as the ratio of fluorescence of the test well to the average fluorescence of the control wells ×100.

MCF-7 = assay: DTP human tumor cell line screen, MCF-7; assay type: cell-based; details: 100 μM; 48 hours; percent growth of control
Protocol: as §1, §2, §3, §4, §5

SF-268 = assay: DTP human tumor cell line screen, SF-268; assay type: cell-based; details: 100 μM; 48 hours; percent growth of control
Protocol: as §1, §2, §3, §4, §5

Q: Which results are given for CSc1ccc(-c2nc3[nH]nc(N)c3c(=O)n2-c2ccc(C)c(C)c2)cc1 [Example 2, 3-amino-5-(3,4-dimethylphenyl)-6-[4-(methylthio)phenyl]-1,5-dihydro-4H-pyrazolo[3,4-d]pyrimidin-4-one]?
A: inhibition at 0.25 µM (COX-2; 0.25 μM): 21.9%; inhibition at 10 µM (COX-2; 10 μM): 16.8%; inhibition at 10 µM (TNF-α): 53.4%; Rat Paw Edema model % Inhibition (Rat Paw Edema model): 30.52 ± 10.3%; % T/C Lung (NCI-H460) (NCI-H460): 7%; % T/C Breast (MCF-7) (MCF-7): 31%; % T/C CNS (SF-268) (SF-268): 39%; melting point: 263 to 266 °C
